Results taken from US20060293307A1, “Oxazolidinone derivatives as antimicrobials” (priority 2002, published 2006).
In brackets after ≈: the same amount, converted by molar mass. Like-named read-outs stand apart in the source and are kept apart here.

What was measured:
H. influenzae βIac = assay: MIC against Haemophilus strains; assay type: cell-based
E. faecalis 5B (VRE) = assay: MIC, agar incorporation method; assay type: cell-based
H. influenzae R = assay: MIC against Haemophilus strains; assay type: cell-based
H. influenzae ATCC 49247 = assay: MIC against Haemophilus strains; assay type: cell-based
H. influenzae 23 = assay: MIC against Haemophilus strains; assay type: cell-based
H. influenzae 35056 = assay: MIC against Haemophilus strains; assay type: cell-based
H. influenzae 1745 = assay: MIC against Haemophilus strains; assay type: cell-based
S. warnerii ST360 = assay: MIC, agar incorporation method; assay type: cell-based
M. tuberculosis M-168 = assay: MIC against M. tuberculosis strains, agar dilution; assay type: cell-based, Mycobacterium tuberculosis; conditions: Mycobacterium tuberculosis, M168, S. No. 09 Mt-, Middle Brook 7H10 + OADC, 37° C., 14-21 days, read-out: MIC
M. tuberculosis H37Ra = assay: MIC against M. tuberculosis strains, agar dilution; assay type: cell-based, Mycobacterium tuberculosis; conditions: Mycobacterium tuberculosis, S. No. 24 Mt-, Middle Brook 7H10 + OADC, 37° C., 14-21 days, read-out: MIC
M. tuberculosis PC 4782 = assay: MIC against M. tuberculosis strains, agar dilution; assay type: cell-based, Mycobacterium tuberculosis; conditions: Mycobacterium tuberculosis, PC4782, S. No. 21 Mt-, Middle Brook 7H10 + OADC, 37° C., 14-21 days, read-out: MIC
M. tuberculosis SGPGI [1] = assay: MIC against M. tuberculosis strains, agar dilution; assay type: cell-based, Mycobacterium tuberculosis; conditions: Mycobacterium tuberculosis, S. No. 06 Mt-, Middle Brook 7H10 + OADC, 37° C., 14-21 days, read-out: MIC
M. tuberculosis SGPGI [2] = assay: MIC against M. tuberculosis strains, agar dilution; assay type: cell-based, Mycobacterium tuberculosis; conditions: Mycobacterium tuberculosis, S. No. 07 Mt-, Middle Brook 7H10 + OADC, 37° C., 14-21 days, read-out: MIC
M. avium ATCC 49601 = assay: MIC against MAC strains, agar dilution; assay type: cell-based, Mycobacterium avium; conditions: Mycobacterium avium, ATCC49601; S. No. 01 Ma-1, M. avium ATCC 49601; Middle Brook 7H10 + OADC, 37° C., 14-21 days; read-out: MIC
M. tuberculosis PC [3] = assay: MIC against M. tuberculosis strains, agar dilution; assay type: cell-based, Mycobacterium tuberculosis; conditions: Mycobacterium tuberculosis, S. No. 20 Mt-, Middle Brook 7H10 + OADC, 37° C., 14-21 days, read-out: MIC
M. tuberculosis 50 = assay: MIC against M. tuberculosis strains, agar dilution; assay type: cell-based, Mycobacterium tuberculosis; conditions: Mycobacterium tuberculosis, S. No. 12 Mt-, Middle Brook 7H10 + OADC, 37° C., 14-21 days, read-out: MIC
M. tuberculosis H37Rv = assay: MIC against M. tuberculosis strains, agar dilution; assay type: cell-based, Mycobacterium tuberculosis; conditions: Mycobacterium tuberculosis, S. No. 04 Mt-, Middle Brook 7H10 + OADC, 37° C., 14-21 days, read-out: MIC
M. tuberculosis PC [4] = assay: MIC against M. tuberculosis strains, agar dilution; assay type: cell-based, Mycobacterium tuberculosis; conditions: Mycobacterium tuberculosis, S. No. 19 Mt-, Middle Brook 7H10 + OADC, 37° C., 14-21 days, read-out: MIC
[5] = Haemophilus influenzae, s. No. 3, H. influenzae βIac, read-out: MIC
[6] = Haemophilus influenzae, s. No. 4, H. influenzae R, read-out: MIC
[7] = Haemophilus influenzae, ATCC49247, s. No. 2, H. influenzae ATCC 49247, read-out: MIC
[8] = Haemophilus influenzae, s. No. 5, H. influenzae 23, read-out: MIC
[9] = Haemophilus influenzae, s. No. 1, H. influenzae 35056, read-out: MIC
[10] = Haemophilus influenzae, s. No. 9, H. influenzae 1745, read-out: MIC
[11] = S. No. 19, E. faecalis 5B (VRE)
[12] = s. No. 2, H. influenzae ATCC 49247

Compound | MIC (S. warnerii ST360) [µg/mL] | MIC (H. influenzae βIac; s. No. 3, H. influenzae βIac) [µg/mL] | MIC (E. faecalis 5B (VRE); [11]) [µg/mL] | MIC (H. influenzae R; s. No. 4, H. influenzae R) [µg/mL] | MIC (H. influenzae ATCC 49247; [12]) [µg/mL] | MIC (H. influenzae 23; s. No. 5, H. influenzae 23) [µg/mL] | MIC (H. influenzae 35056; s. No. 1, H. influenzae 35056) [µg/mL] | MIC (H. influenzae 1745; s. No. 9, H. influenzae 1745) [µg/mL] | MIC (S. warnerii ST360; S. No. 16, S. warnerii ST360) [µg/mL] | also measured
CC(=O)NC[C@H]1CN(c2ccc(N3CCN(c4ccc(C=O)s4)CC3)c(F)c2)C(=O)O1 [Compound No. 2, (S)—N-[[3-[3-Fluoro-4-[4-(5-formyl-2-thienyl)-1-piperazinyl]phenyl]-2-oxo-5-oxazolidinyl]methyl]acetamide] | < 0.25 |  |  |  |  |  |  |  |  | MIC (H. influenzae βIac; [5]): 16 µg/mL (≈ 35.8 µM); MIC (E. faecalis 5B (VRE); Enterococcus faecalis, S. No. 19, E. faecalis 5B (VRE), read-out: MIC): 0.5 µg/mL (≈ 1.12 µM); MIC (H. influenzae R; [6]): > 16 µg/mL; MIC (H. influenzae ATCC 49247; [7]): 16 µg/mL (≈ 35.8 µM); MIC (H. influenzae 23; [8]): > 16 µg/mL; MIC (H. influenzae 35056; [9]): 16 µg/mL (≈ 35.8 µM); MIC (H. influenzae 1745; [10]): > 16 µg/mL
CC(=O)NC[C@H]1CN(c2ccc(N3CCN(c4ccc(C=O)o4)CC3)c(F)c2)C(=O)O1 [Compound No. 3, (S)—N-[[3-[3-Fluoro-4-[4-(5-formyl-2-furyl)-1-piperazinyl]phenyl]-2-oxo-5-oxazolidinyl]methyl]acetamide] |  |  |  |  |  |  |  |  |  | MIC (H. influenzae βIac; [5]): 4 µg/mL (≈ 9.29 µM); MIC (H. influenzae R; [6]): 8 µg/mL (≈ 18.6 µM); MIC (H. influenzae ATCC 49247; [7]): 4 µg/mL (≈ 9.29 µM); MIC (H. influenzae 23; [8]): 8 µg/mL (≈ 18.6 µM); MIC (H. influenzae 35056; [9]): 4 µg/mL (≈ 9.29 µM); MIC (H. influenzae 1745; [10]): 8 µg/mL (≈ 18.6 µM)
CC(=O)NC[C@H]1CN(c2ccc(N3CCN(c4ccc([N+](=O)[O-])o4)CC3)c(F)c2)C(=O)O1 [Compound No. 4, (S)—N-[[3-[3-Fluoro-4-[4-(5-nitro-2-furyl)-1-piperazinyl]phenyl]-2-oxo-5-oxazolidinyl]methyl]acetamide] | 8 (≈ 17.9 µM) |  |  |  |  |  |  |  |  | 
CC(=O)NC[C@H]1CN(c2ccc(N3CCN(c4cc(C(OC(C)=O)OC(C)=O)sc4[N+](=O)[O-])CC3)c(F)c2)C(=O)O1 [Compound No. 5, (S)—N-[[3-[3-Fluoro-4-[4-{3-thienyl(2-nitro)-5-acetyloxy}methylacetate]-1-piperazinyl]phenyl]-2-oxo-5-oxazolidinyl]acetamide] |  | >16 | 1 (≈ 1.68 µM) | 16 (≈ 27 µM) | >16 | >16 | >16 | 16 (≈ 27 µM) | 0.25 (≈ 0.421 µM) | 
CC(=O)NC[C@H]1CN(c2ccc(N3CCN(c4ccc([N+](=O)[O-])s4)CC3)cc2)C(=O)O1 [Compound No. 6, (S)—N-[[3-[4-[N-1-(5-nitro-2-thienyl)piperazinyl]-phenyl]-2-oxo-5-oxazolidinyl]-methyl]-acetamide] |  | 8 (≈ 18 µM) |  | 16 (≈ 35.9 µM) | 16 (≈ 35.9 µM) | 16 (≈ 35.9 µM) | 16 (≈ 35.9 µM) | 16 (≈ 35.9 µM) | 1 (≈ 2.24 µM) | 
C[C@H](Cl)C(=O)NCC1CN(c2ccc(N3CCN(c4ccc([N+](=O)[O-])s4)CC3)c(F)c2)C(=O)O1 (stereo partly drawn) [Compound No. 7, (S)—N-[[3-[3-Fluoro-4-[N-1-{4-(5-nitro-2-thienyl)piperazinyl}]-phenyl]-2-oxo-5-oxazolidinyl]-methyl]-2-chloro-propionamide] |  | >16 | >8 | >16 | >16 | >16 | >16 | >16 | 4 (≈ 7.81 µM) | 
O=C(NC[C@H]1CN(c2ccc(N3CCN(c4ccc([N+](=O)[O-])s4)CC3)c(F)c2)C(=O)O1)C(F)F [Compound No. 8, (S)—N-[[3-[3-Fluoro-4-[4-(5-nitro-2-thienyl)-1-piperazinyl]phenyl]-2-oxo-5-oxazolidinyl]methyl]difluoroacetamide] | 0.25 (≈ 0.501 µM) |  |  |  |  |  |  |  |  | MIC (H. influenzae βIac; Haemophilus influenzae): > 16 µg/mL; MIC (E. faecalis 5B (VRE); Enterococcus faecalis, VRE): 2 µg/mL (≈ 4 µM); MIC (H. influenzae R; Haemophilus influenzae): > 16 µg/mL; MIC (H. influenzae ATCC 49247; Haemophilus influenzae, ATCC49247): > 16 µg/mL; MIC (H. influenzae 23; Haemophilus influenzae, 23): > 16 µg/mL; MIC (H. influenzae 35056; Haemophilus influenzae, 35056): > 16 µg/mL; MIC (H. influenzae 1745; Haemophilus influenzae, 1745): 16 µg/mL (≈ 32 µM)
CC(=O)NC[C@H]1CN(c2ccc(N3CCOCC3)c(F)c2)C(=O)O1 [Linezolid, reference compound] | < 0.5 |  |  |  |  |  |  |  |  | MIC (M. tuberculosis M-168): 4 µg/mL; MIC (M. tuberculosis H37Ra): 0.5 µg/mL; MIC (H. influenzae βIac; [5]): 8 µg/mL (≈ 23.7 µM); MIC (E. faecalis 5B (VRE); Enterococcus faecalis, VRE): 2 µg/mL (≈ 5.93 µM); MIC (M. tuberculosis PC 4782): 1 µg/mL; MIC (H. influenzae R; [6]): 16 µg/mL (≈ 47.4 µM); MIC (H. influenzae ATCC 49247; [7]): 8 µg/mL (≈ 23.7 µM); MIC (M. tuberculosis SGPGI [1]): > 32 µg/mL; MIC (H. influenzae 23; [8]): 16 µg/mL (≈ 47.4 µM); MIC (M. tuberculosis SGPGI [2]): > 32 µg/mL; MIC (H. influenzae 35056; [9]): 8 µg/mL (≈ 23.7 µM); MIC (M. avium ATCC 49601): 0.5 µg/mL; MIC (H. influenzae 1745; [10]): 16 µg/mL (≈ 47.4 µM); MIC (M. tuberculosis PC [3]): 32 µg/mL; MIC (M. tuberculosis 50): > 32 µg/mL; MIC (M. tuberculosis H37Rv): 1 µg/mL; MIC (M. tuberculosis PC [4]): 0.5 µg/mL
CN[C@H](CC(C)C)C(=O)N[C@H]1C(=O)N[C@@H](CC(N)=O)C(=O)N[C@H]2C(=O)N[C@H]3C(=O)N[C@H](C(=O)N[C@H](C(=O)O)c4cc(O)cc(O)c4-c4cc3ccc4O)[C@H](O)c3ccc(c(Cl)c3)Oc3cc2cc(c3O[C@@H]2O[C@H](CO)[C@@H](O)[C@H](O)[C@H]2O[C@H]2C[C@](C)(N)[C@H](O)[C@H](C)O2)Oc2ccc(cc2Cl)[C@H]1O [Vancomycin, reference compound] | 0.5 (≈ 0.345 µM) |  |  |  |  |  |  |  |  | MIC (E. faecalis 5B (VRE); Enterococcus faecalis, VRE): > 16 µg/mL
O=C(NC[C@H]1CN(c2ccc(N3CCN(c4ccc([N+](=O)[O-])s4)CC3)c(F)c2)C(=O)O1)C(Cl)Cl [compound 9, (S)—N-[[3-[-3-Fluoro-4-[N-1-(5-nitro-2-thienyl)-piperazinyl]phenyl] -2-oxo-5-oxazolidinyl]methyl]dichloroacetamide] |  | >16 | 0.5 (≈ 0.939 µM) | >16 | >16 | >16 | >16 | >16 | 0.5 (≈ 0.939 µM) | 
(S)—N-[[3-[-3-Fluoro-4-[(5-nitro-2-thienyl)-3-methyl-1-piperazinyl]phenyl]-2-oxo-5-oxazolidinyl]methyl]acetamide [Compound No. 10] |  | >16 | 1 | >16 | >16 | >16 | >16 | >16 | 0.5 | 
